Assay results published in PubChem BioAssay (NCI).
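Tested at 5 concentrations; 48 h exposure; 96-well plates; endpoints linearly interpolated, else capped at highest concentration. TGI: total growth inhibition.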

What was measured:
Experiment in all cases: inhibition of tumour cell growth, NCI panel, 48 h
786-0 renal = test system: 786-0 renal
A549 NSCLC = test system: A549 NSCLC
IGROV1 ovarian = test system: IGROV1 ovarian
OVCAR-3 ovarian = test system: OVCAR-3 ovarian
OVCAR-5 ovarian = test system: OVCAR-5 ovarian
SF-268 CNS = test system: SF-268 CNS
SN12C renal = test system: SN12C renal
SR leukemia = test system: SR leukemia
T-47D breast = test system: T-47D breast
TK-10 renal = test system: TK-10 renal
UO-31 renal = test system: UO-31 renal

| SMILES | TGI (786-0 renal) [µM] | TGI (A549 NSCLC) [µM] | TGI (IGROV1 ovarian) [µM] | TGI (OVCAR-3 ovarian) [µM] | TGI (OVCAR-5 ovarian) [µM] | TGI (SF-268 CNS) [µM] | TGI (SN12C renal) [µM] | TGI (SR leukemia) [µM] | TGI (T-47D breast) [µM] | TGI (TK-10 renal) [µM] | TGI (UO-31 renal) [µM] |
| --- | --- | --- | --- | --- | --- | --- | --- | --- | --- | --- | --- |
| Cc1ccc2c(c1)C(=S)N1CSCC1c1nncn1-2 (stereo not drawn) | > 100 | > 100 | > 100 | > 100 | > 100 | > 100 | > 100 | > 100 | > 100 | > 100 | > 100 |
| C=C(Cl)C(=CCl)CCC(Br)C(C)(C)Cl (mixture of isomers) | > 10 | > 10 | > 10 | > 10 | > 10 | > 10 | > 10 | > 10 | > 10 | > 10 | > 10 |
| O=C1C2SC34c5c2c2ccccc2n5CCC3CCCN14 (stereo not drawn) | > 100 | > 100 | > 100 | > 100 | > 100 | > 100 | > 100 | > 100 | > 100 | 87 | > 100 |
| Nc1ccc2c(c1)C(=O)N1CCC[C@H]1C(=O)N2 | > 100 | > 100 | > 100 | > 100 | > 100 | > 100 | > 100 | > 100 | > 100 | > 100 | > 100 |
| N=C(N)C1CN(CCc2c[nH]c3ccccc23)C(=O)NC1=O (stereo not drawn) | > 100 | > 100 | > 100 | > 100 | > 100 | > 100 | > 100 | > 100 | > 100 | > 100 | > 100 |
| COc1cc(C2C3C=CC=C4CC=CC(=C43)C3CCC(=O)N32)cc(OC)c1OC (stereo not drawn) | > 100 | > 100 | > 100 | > 100 | > 100 | > 100 | > 100 | > 100 | > 100 | > 100 | > 100 |
| CN1C(=O)c2ccccc2OC12C=Cc1c(ccc3ccccc13)O2 (stereo not drawn) | 25.7 | 40.1 | 30.8 | 19.1 | 27.4 | 31.4 | > 57.1 | > 100 | > 25.7 | > 61 | 35.8 |
| O=c1[nH]nnc2c1sc1ncccc12 | > 100 | > 100 | > 100 | > 100 | > 100 | > 100 | > 100 | > 100 | > 100 | > 100 | > 100 |
